Assay results reported in ChEMBL document CHEMBL3885881, “DrugMatrix”.

Organism: Rattus norvegicus
Test: DrugMatrix - Regimen: Daily Repeat
Assay type: toxicity, organism-based, Sprague-Dawley
Parameters: regimen Daily Repeat, gender Male, age 6-8 weeks
Settings: in vivo, po, route oral GAVAGE, vehicle .5 % CMC; for ABSOLUTE BASOPHIL / ABSOLUTE EOSINOPHIL / ABSOLUTE LYMPHOCYTE / ABSOLUTE MONOCYTE / ABSOLUTE SEGMENTED NEUTROPHIL / BASOPHIL / EOSINOPHIL / ERYTHROCYTE COUNT / HEMATOCRIT / HEMOGLOBIN / LEUKOCYTE COUNT / LYMPHOCYTE / MEAN CORPUSCULAR HEMOGLOBIN / MEAN CORPUSCULAR HEMOGLOBIN CONCENTRATION / MEAN CORPUSCULAR VOLUME / MONOCYTE / NEUTROPHIL / NUCLEATED RED BLOOD CELLS / PLATELET COUNT: tissue Blood; for ALANINE AMINOTRANSFERASE / ALBUMIN / ALKALINE PHOSPHATASE / ASPARTATE AMINOTRANSFERASE / BLOOD UREA NITROGEN / CARBON DIOXIDE / CHLORIDE / CHOLESTEROL / CREATINE PHOSPHOKINASE / CREATININE / GLUCOSE / LACTATE DEHYDROGENASE / LIPASE / PHOSPHORUS / POTASSIUM / SODIUM / TOTAL BILIRUBIN / TOTAL PROTEIN / URIC ACID: tissue Plasma
[1] = 0 mg/kg, 72 h, dose level Control, time 3 day
[2] = 0 mg/kg, 120 h, dose level Control, time 5 day
[3] = […], 72 h, dose 0.83 mg/Kg, dose level Low, time 3 day
[4] = […], 120 h, dose 0.83 mg/Kg, dose level Low, time 5 day

## C[C@]12CC[C@@H]3c4ccc(O)cc4CC[C@H]3[C@@H]1C[C@@H](O)[C@@H]2O [ESTRIOL]
[1]
  ABSOLUTE BASOPHIL: 0 CELLS/uL
  ABSOLUTE EOSINOPHIL: 171.33 CELLS/uL
  ABSOLUTE LYMPHOCYTE: 13776.5 CELLS/uL
  ABSOLUTE MONOCYTE: 180.83 CELLS/uL
  ABSOLUTE SEGMENTED NEUTROPHIL: 1121.33 CELLS/uL
  BASOPHIL: 0%
  EOSINOPHIL: 1%
  ERYTHROCYTE COUNT: 5.56 x10E6/uL
  HEMATOCRIT: 34.75%
  HEMOGLOBIN: 13.68 G/DL
  LEUKOCYTE COUNT: 15.25 x10E3/uL
  LYMPHOCYTE: 90.17%
  MEAN CORPUSCULAR HEMOGLOBIN: 24.6 pg
  MEAN CORPUSCULAR HEMOGLOBIN CONCENTRATION: 39.4 G/DL
  MEAN CORPUSCULAR VOLUME: 62.48 fL
  MONOCYTE: 1.17%
  NEUTROPHIL: 7.67%
  NUCLEATED RED BLOOD CELLS: 0 /100WBC
  PLATELET COUNT: 1342 x10E3/uL
  ALANINE AMINOTRANSFERASE: 49.67 u/L
  ALBUMIN: 4.15 G/DL
  ALKALINE PHOSPHATASE: 346.83 u/L
  ASPARTATE AMINOTRANSFERASE: 108.17 u/L
  BLOOD UREA NITROGEN: 17.33 mg/dL
  CARBON DIOXIDE: 25 mmol/L
  CHLORIDE: 100.83 MEQ/L
  CHOLESTEROL: 66.83 mg/dL
  CREATINE PHOSPHOKINASE: 788 u/L
  CREATININE: 0.18 mg/dL
  GLUCOSE: 151.67 mg/dL
  LACTATE DEHYDROGENASE: 982.5 u/L
  LIPASE: 10.33 u/L
  PHOSPHORUS: 11.23 mg/dL
  POTASSIUM: 6.37 MEQ/L
  SODIUM: 141.02 MEQ/L
  TOTAL BILIRUBIN: 0.18 mg/dL
  TOTAL PROTEIN: 5.9 G/DL
  URIC ACID: 1.8 mg/dL
[2]
  ABSOLUTE BASOPHIL: 0 CELLS/uL
  ABSOLUTE EOSINOPHIL: 69 CELLS/uL
  ABSOLUTE LYMPHOCYTE: 13632.83 CELLS/uL
  ABSOLUTE MONOCYTE: 139.83 CELLS/uL
  ABSOLUTE SEGMENTED NEUTROPHIL: 1225 CELLS/uL
  BASOPHIL: 0%
  EOSINOPHIL: 0.33%
  ERYTHROCYTE COUNT: 5.52 x10E6/uL
  HEMATOCRIT: 33.98%
  HEMOGLOBIN: 13.22 G/DL
  LEUKOCYTE COUNT: 15.07 x10E3/uL
  LYMPHOCYTE: 90.83%
  MEAN CORPUSCULAR HEMOGLOBIN: 23.95 pg
  MEAN CORPUSCULAR HEMOGLOBIN CONCENTRATION: 38.9 G/DL
  MEAN CORPUSCULAR VOLUME: 61.53 fL
  MONOCYTE: 0.83%
  NEUTROPHIL: 8%
  NUCLEATED RED BLOOD CELLS: 0 /100WBC
  PLATELET COUNT: 1196 x10E3/uL
  ALANINE AMINOTRANSFERASE: 49.17 u/L
  ALBUMIN: 4.2 G/DL
  ALKALINE PHOSPHATASE: 352.33 u/L
  ASPARTATE AMINOTRANSFERASE: 89.67 u/L
  BLOOD UREA NITROGEN: 18 mg/dL
  CARBON DIOXIDE: 27.67 mmol/L
  CHLORIDE: 101 MEQ/L
  CHOLESTEROL: 72.83 mg/dL
  CREATINE PHOSPHOKINASE: 417.5 u/L
  CREATININE: 0.18 mg/dL
  GLUCOSE: 150.5 mg/dL
  LACTATE DEHYDROGENASE: 517.33 u/L
  LIPASE: 9 u/L
  PHOSPHORUS: 11.87 mg/dL
  POTASSIUM: 6.57 MEQ/L
  SODIUM: 143.62 MEQ/L
  TOTAL BILIRUBIN: 0.2 mg/dL
  TOTAL PROTEIN: 6.08 G/DL
  URIC ACID: 1.45 mg/dL
[3]
  ABSOLUTE BASOPHIL: 0 CELLS/uL
  ABSOLUTE EOSINOPHIL: 41 CELLS/uL
  ABSOLUTE LYMPHOCYTE: 11813.33 CELLS/uL
  ABSOLUTE MONOCYTE: 115.33 CELLS/uL
  ABSOLUTE SEGMENTED NEUTROPHIL: 930.33 CELLS/uL
  BASOPHIL: 0%
  EOSINOPHIL: 0.33%
  ERYTHROCYTE COUNT: 5.37 x10E6/uL
  HEMATOCRIT: 33.8%
  HEMOGLOBIN: 13.17 G/DL
  LEUKOCYTE COUNT: 12.9 x10E3/uL
  LYMPHOCYTE: 91.33%
  MEAN CORPUSCULAR HEMOGLOBIN: 24.53 pg
  MEAN CORPUSCULAR HEMOGLOBIN CONCENTRATION: 38.97 G/DL
  MEAN CORPUSCULAR VOLUME: 62.9 fL
  MONOCYTE: 1%
  NEUTROPHIL: 7.33%
  NUCLEATED RED BLOOD CELLS: 0 /100WBC
  PLATELET COUNT: 1229.33 x10E3/uL
  ALANINE AMINOTRANSFERASE: 41.67 u/L
  ALBUMIN: 4.13 G/DL
  ALKALINE PHOSPHATASE: 500 u/L
  ASPARTATE AMINOTRANSFERASE: 89.33 u/L
  BLOOD UREA NITROGEN: 17.67 mg/dL
  CARBON DIOXIDE: 23.67 mmol/L
  CHLORIDE: 103.67 MEQ/L
  CHOLESTEROL: 36 mg/dL
  CREATINE PHOSPHOKINASE: 654.33 u/L
  CREATININE: 0.23 mg/dL
  GLUCOSE: 162 mg/dL
  LACTATE DEHYDROGENASE: 616.67 u/L
  LIPASE: 10.67 u/L
  PHOSPHORUS: 11.97 mg/dL
  POTASSIUM: 6.03 MEQ/L
  SODIUM: 144.8 MEQ/L
  TOTAL BILIRUBIN: 0.17 mg/dL
  TOTAL PROTEIN: 6 G/DL
  URIC ACID: 1.6 mg/dL
[4]
  ABSOLUTE BASOPHIL: 0 CELLS/uL
  ABSOLUTE EOSINOPHIL: 0 CELLS/uL
  ABSOLUTE LYMPHOCYTE: 12894 CELLS/uL
  ABSOLUTE MONOCYTE: 233.33 CELLS/uL
  ABSOLUTE SEGMENTED NEUTROPHIL: 972.67 CELLS/uL
  BASOPHIL: 0%
  EOSINOPHIL: 0%
  ERYTHROCYTE COUNT: 5.98 x10E6/uL
  HEMATOCRIT: 36.97%
  HEMOGLOBIN: 13.8 G/DL
  LEUKOCYTE COUNT: 14.1 x10E3/uL
  LYMPHOCYTE: 91.33%
  MEAN CORPUSCULAR HEMOGLOBIN: 23.07 pg
  MEAN CORPUSCULAR HEMOGLOBIN CONCENTRATION: 37.33 G/DL
  MEAN CORPUSCULAR VOLUME: 61.87 fL
  MONOCYTE: 1.67%
  NEUTROPHIL: 7%
  NUCLEATED RED BLOOD CELLS: 0 /100WBC
  PLATELET COUNT: 1068.67 x10E3/uL
  ALANINE AMINOTRANSFERASE: 43.67 u/L
  ALBUMIN: 4.23 G/DL
  ALKALINE PHOSPHATASE: 477 u/L
  ASPARTATE AMINOTRANSFERASE: 80.33 u/L
  BLOOD UREA NITROGEN: 17.33 mg/dL
  CARBON DIOXIDE: 26.33 mmol/L
  CHLORIDE: 101.67 MEQ/L
  CHOLESTEROL: 36.33 mg/dL
  CREATINE PHOSPHOKINASE: 414 u/L
  CREATININE: 0.19 mg/dL
  GLUCOSE: 148.33 mg/dL
  LACTATE DEHYDROGENASE: 577 u/L
  LIPASE: 8.33 u/L
  PHOSPHORUS: 10.9 mg/dL
  POTASSIUM: 6.26 MEQ/L
  SODIUM: 144.2 MEQ/L
  TOTAL BILIRUBIN: 0.23 mg/dL
  TOTAL PROTEIN: 6.3 G/DL
  URIC ACID: 1.63 mg/dL
